Reference: patent publication US8101596B2, “Loxapine analogs and methods of use thereof” (Hypnion Inc., priority 2004, dated 2012)
pKi: −log10 of the molar value.

Assays:
[1] = tested on: male Wistar rats; assay: Sleep-wakefulness monitoring (SCORE-2000) in rats; assay type: in vivo, rat; details: CT-18
Method: Food and water were available ad libitum.
Treatments were administered orally as a bolus.
A parallel group study design was employed.

[2] = tested on: monkey cryopreserved hepatocytes; assay: Metabolism in monkey cryopreserved hepatocytes; assay type: in vitro ADME; details: primate hepatocytes, 1 μM, in % (unit assumed)
Method: (§1) Metabolism of test articles in monkey and human cryopreserved hepatocytes was assayed as follows:
(§2) Sample is diluted with DMSO, to prepare 100 μM and 10 μM stocks. 0.1% formic acid in acetonitrile is prepared by the addition of 1 mL formic acid per 1 L acetonitrile (store RT for 3 months). 10 minute, 60 and 120 minute 96 well quenching plates are prepared with 150 μL acetonitrile+0.1% formic acid in each well. Store on ice or refrigerated.
(§3) Next, hepatocytes are thawed and 100 μL of cell suspension is placed into a microfuge tube with 100 μL 0.4% Trypan Blue solution and gently mix by inversion. A small amount of the stained cell suspension (approximately 15 μL) is placed into a clean hemacytometer with a coverslip. The hemacytometer is placed onto the stage of the microscope and the focus and power are adjusted until a single counting square fills the field. The number of cells in the four outside corner subdivided squares of the hemacytometer are counted. Viable cells are opalescent, round, and pale with a darker outline. Non-viable cells are dark, opaque blue.
(§4) 198 μL of hepatocytes are transferred to relevant wells on dosing plate.
(§5) Plates are preincubated for at least 15 min. Reactions are started 2 μL of appropriate test compound dilution from dosing plate. […]

[3] = tested on: human cryopreserved hepatocytes; assay: Metabolism in human cryopreserved hepatocytes; assay type: in vitro ADME; details: 1 μM, in % (unit assumed)
Method: as §1, §2, §3, §4, §5

[4] = target: T1, human recombinant M1 expressed in CHO cells (Homo sapiens, UniProt P11229); assay: M1 muscarinic receptor binding assay
T1 construct: purchased PerkinElmer, Inc., Wellesley, Mass; host or cells: CHO cells
T1 sequence (P11229 1-460): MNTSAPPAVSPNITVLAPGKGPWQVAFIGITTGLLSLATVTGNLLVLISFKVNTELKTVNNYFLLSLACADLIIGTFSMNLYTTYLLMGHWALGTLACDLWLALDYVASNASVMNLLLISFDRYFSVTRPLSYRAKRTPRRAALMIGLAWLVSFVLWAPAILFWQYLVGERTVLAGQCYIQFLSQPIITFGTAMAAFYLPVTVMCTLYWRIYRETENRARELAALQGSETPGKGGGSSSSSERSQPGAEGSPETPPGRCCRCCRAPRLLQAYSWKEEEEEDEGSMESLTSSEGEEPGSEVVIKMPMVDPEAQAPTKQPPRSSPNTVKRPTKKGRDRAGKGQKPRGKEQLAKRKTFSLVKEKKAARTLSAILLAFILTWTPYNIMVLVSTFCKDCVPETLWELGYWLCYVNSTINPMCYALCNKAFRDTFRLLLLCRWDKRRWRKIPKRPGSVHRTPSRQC

[5] = target: T2, human recombinant M2 expressed in CHO cells (Homo sapiens, UniProt P08172); assay: M2 muscarinic receptor binding assay
T2 construct: purchased PerkinElmer, Inc., Wellesley, Mass; host or cells: CHO cells
T2 sequence (P08172 1-466): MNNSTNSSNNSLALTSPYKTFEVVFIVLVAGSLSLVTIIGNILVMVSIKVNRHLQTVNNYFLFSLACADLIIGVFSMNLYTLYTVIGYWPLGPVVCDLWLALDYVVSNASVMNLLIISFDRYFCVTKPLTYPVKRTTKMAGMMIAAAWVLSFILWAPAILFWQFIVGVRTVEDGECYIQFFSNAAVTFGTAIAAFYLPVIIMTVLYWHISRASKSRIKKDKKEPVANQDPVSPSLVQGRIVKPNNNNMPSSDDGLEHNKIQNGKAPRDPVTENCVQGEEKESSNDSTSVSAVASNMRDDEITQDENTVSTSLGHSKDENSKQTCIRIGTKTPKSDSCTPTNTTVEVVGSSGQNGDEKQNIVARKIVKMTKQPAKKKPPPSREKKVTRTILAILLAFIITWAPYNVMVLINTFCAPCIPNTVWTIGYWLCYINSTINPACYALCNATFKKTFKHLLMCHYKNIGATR

[6] = target: T3, human recombinant M3 expressed in CHO cells (Homo sapiens, UniProt P20309); assay: M3 muscarinic receptor binding assay
T3 construct: purchased PerkinElmer, Inc., Wellesley, Mass; host or cells: CHO cells

[7] = target: T4, H1 histamine receptor (Bos taurus, UniProt P30546); details: reference compounds; read-out: Ki of reference compounds in H1 binding assay (unit inferred); cited from earlier work
T4 construct: the receptors were obtained from bovine cerebellar membrane tissue; from tissue; host or cells: bovine cerebellar membranes
T4 sequence (P30546 whole entry): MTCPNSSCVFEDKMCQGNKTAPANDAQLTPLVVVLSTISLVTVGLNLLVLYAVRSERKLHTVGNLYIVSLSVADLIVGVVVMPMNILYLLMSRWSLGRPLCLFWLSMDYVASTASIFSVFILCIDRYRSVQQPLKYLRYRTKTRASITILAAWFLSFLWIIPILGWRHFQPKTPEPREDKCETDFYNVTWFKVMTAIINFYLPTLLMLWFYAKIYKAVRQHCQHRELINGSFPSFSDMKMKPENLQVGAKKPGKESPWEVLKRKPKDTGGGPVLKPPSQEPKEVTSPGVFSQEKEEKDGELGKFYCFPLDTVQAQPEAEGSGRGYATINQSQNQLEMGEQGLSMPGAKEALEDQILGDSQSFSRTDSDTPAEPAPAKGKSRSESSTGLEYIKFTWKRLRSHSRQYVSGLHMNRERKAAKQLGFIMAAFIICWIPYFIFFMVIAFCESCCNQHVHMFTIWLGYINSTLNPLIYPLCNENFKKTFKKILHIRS

T3 sequence (P20309 whole entry): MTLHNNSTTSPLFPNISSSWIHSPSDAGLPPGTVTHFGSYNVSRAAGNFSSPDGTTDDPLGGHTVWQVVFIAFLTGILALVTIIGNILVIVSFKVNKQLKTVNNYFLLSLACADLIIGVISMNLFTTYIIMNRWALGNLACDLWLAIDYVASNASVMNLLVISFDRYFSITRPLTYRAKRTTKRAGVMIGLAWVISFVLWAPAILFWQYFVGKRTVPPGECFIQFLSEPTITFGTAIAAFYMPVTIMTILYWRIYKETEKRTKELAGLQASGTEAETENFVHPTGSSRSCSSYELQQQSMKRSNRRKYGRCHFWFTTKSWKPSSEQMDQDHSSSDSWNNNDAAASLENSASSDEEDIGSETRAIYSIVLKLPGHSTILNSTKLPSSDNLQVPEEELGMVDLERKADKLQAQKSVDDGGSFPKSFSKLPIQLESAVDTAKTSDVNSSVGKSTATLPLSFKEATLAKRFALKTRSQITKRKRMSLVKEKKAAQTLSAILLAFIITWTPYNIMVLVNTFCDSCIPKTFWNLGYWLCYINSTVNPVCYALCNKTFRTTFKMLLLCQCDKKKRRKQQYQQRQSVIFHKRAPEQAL

With CC(C)(CN1CCN(C2=Nc3ccccc3Oc3ccccc32)CC1)C(=O)O [Compound 1] the “LUSB (longest uninterrupted sleep bout)” value ([1]; 1 mg/kg oral) was 6.0 ± 2.3 min, the “LUSB (longest uninterrupted sleep bout)” value ([1]; 3 mg/kg oral) was 18.8 ± 3.0 min and the “LUSB (longest uninterrupted sleep bout)” value ([1]; 10 mg/kg oral) was 19.7 ± 6.7 min.
For CC(C)(CN1CCN(C2=Nc3ccccc3Oc3ccc(Cl)cc32)CC1)C(=O)O [Compound 5], the “LUSB (longest uninterrupted sleep bout)” value ([1]; 3 mg/kg oral) was 13.5 ± 4.0 min, the “LUSB (longest uninterrupted sleep bout)” value ([1]; 10 mg/kg oral) was 8.7 ± 3.3 min and the “remaining 120 minutes after treatment” value [2] was 75.105. For the same molecule, the “remaining 120 minutes after treatment” value [3] was 90.405.
Work on CC(C)(CCN1CCN(C2=Nc3ccccc3Oc3ccc(Cl)cc32)CC1)C(=O)O [Compound 6] yielded a pKi [4] of under 5.00, a pKi [5] of under 5.00 and a pKi [6] of under 5.00.
For CC(C)(CN1CCN(C2=Nc3ccccc3Oc3ccc(Br)cc32)CC1)C(=O)O [Compound 8], the “LUSB (longest uninterrupted sleep bout)” value ([1]; 10 mg/kg oral) was 16.7 ± 3.0 min.
In the case of COc1ccc2c(c1)C(N1CCN(CC(C)(C)C(=O)O)CC1)=Nc1ccccc1O2 [Compound 12], the “LUSB (longest uninterrupted sleep bout)” value ([1]; 1 mg/kg oral) was 7.7 ± 3.2 min, the “LUSB (longest uninterrupted sleep bout)” value ([1]; 3 mg/kg oral) was 8.3 ± 3.0 min and the “LUSB (longest uninterrupted sleep bout)” value ([1]; 10 mg/kg oral) was 18.1 ± 2.1 min.
For CC(C)(CN1CCN(C2=Nc3cc(Br)ccc3Oc3ccccc32)CC1)C(=O)O [Compound 17], the “LUSB (longest uninterrupted sleep bout)” value ([1]; 10 mg/kg oral) was 5.0 ± 2.0 min.
In the case of Cc1ccc2c(c1)N=C(N1CCN(CC(C)(C)C(=O)O)CC1)c1ccccc1O2 [Compound 19], the “LUSB (longest uninterrupted sleep bout)” value ([1]; 3 mg/kg oral) was 18.6 ± 3.3 min and the “LUSB (longest uninterrupted sleep bout)” value ([1]; 10 mg/kg oral) was 11.7 ± 4.0 min.
With Cc1ccc2c(c1)N=C(N1CCN(CC(C)(C)C(=O)O)CC1)c1cc(C)ccc1O2 [Compound 20] the “LUSB (longest uninterrupted sleep bout)” value ([1]; 10 mg/kg oral) was 4.7 ± 2.3 min.
In the case of CC(C)(CN1CCN(C2=Nc3ccccc3Oc3ccccc32)CC1)C(=O)NS(C)(=O)=O [Compound 40], the “LUSB (longest uninterrupted sleep bout)” value ([1]; 10 mg/kg oral) was 7.6 ± 4.2 min and the “LUSB (longest uninterrupted sleep bout)” value ([1]; 30 mg/kg oral) was 16.4 ± 2.9 min.
For COc1ccc2c(c1)N=C(N1CCN(CC(C)(C)C(=O)O)CC1)c1ccc(OC)cc1O2 [Compound 42], the “LUSB (longest uninterrupted sleep bout)” value ([1]; 10 mg/kg oral) was 4.8 ± 2.7 min.
For Cc1ccc2c(c1)Oc1ccccc1N=C2N1CCN(CC(C)(C)C(=O)O)CC1 [Compound 46], the “LUSB (longest uninterrupted sleep bout)” value ([1]; 1 mg/kg oral) was 4.1 ± 1.6 min, the “LUSB (longest uninterrupted sleep bout)” value ([1]; 3 mg/kg oral) was 17 ± 4.4 min and the “LUSB (longest uninterrupted sleep bout)” value ([1]; 10 mg/kg oral) was 11.1 ± 3.7 min.
With Cc1ccc2c(c1)C(N1CCN(CC(C)(C)C(=O)O)CC1)=Nc1cc(Br)ccc1O2 [Compound 50] the “LUSB (longest uninterrupted sleep bout)” value ([1]; 10 mg/kg oral) was 3.4 ± 2.6 min.
For COc1ccc2c(c1)C(N1CCN(CC(C)(C)C(=O)O)CC1)=Nc1cc(Br)ccc1O2 [Compound 51], the “LUSB (longest uninterrupted sleep bout)” value ([1]; 10 mg/kg oral) was 10.1 ± 3.6 min.
For Cc1ccc2c(c1)N=C(N1CCN(CC(C)(C)C(=O)O)CC1)c1ccc(C)cc1O2 [Compound 52], the “LUSB (longest uninterrupted sleep bout)” value ([1]; 10 mg/kg oral) was 15.9 ± 2.3 min.
For COc1ccc2c(c1)C(N1CCN(CC(C)(C)C(=O)O)CC1)=Nc1cc(C)ccc1O2 [Compound 54], the “LUSB (longest uninterrupted sleep bout)” value ([1]; 10 mg/kg oral) was 11.1 ± 2.9 min.
In the case of COc1ccc2c(c1)N=C(N1CCN(CC(C)(C)C(=O)O)CC1)c1cc(C)ccc1O2 [Compound 56], the “LUSB (longest uninterrupted sleep bout)” value ([1]; 10 mg/kg oral) was 11.7 ± 2.3 min.
For CN(C)CCCSC(=N)N [dimaprit], the pKi [7] is given as under 3.96.
